The record followed here is US9914730B2, “Azaquinazoline inhibitors of Atypical protein Kinase C” (Ignyta, Inc., priority 2012, dated 2018).

Each structure is given as a SMILES string.

The target of this assay is T1, full-length human PKCι (Homo sapiens, UniProt P41743).
T1 construct: Recombinant, full-length human PKCι expressed in Sf21 insect cells is also commercially available; purchased; host or cells: Sf21 insect cells
T1 sequence (P41743 1-596): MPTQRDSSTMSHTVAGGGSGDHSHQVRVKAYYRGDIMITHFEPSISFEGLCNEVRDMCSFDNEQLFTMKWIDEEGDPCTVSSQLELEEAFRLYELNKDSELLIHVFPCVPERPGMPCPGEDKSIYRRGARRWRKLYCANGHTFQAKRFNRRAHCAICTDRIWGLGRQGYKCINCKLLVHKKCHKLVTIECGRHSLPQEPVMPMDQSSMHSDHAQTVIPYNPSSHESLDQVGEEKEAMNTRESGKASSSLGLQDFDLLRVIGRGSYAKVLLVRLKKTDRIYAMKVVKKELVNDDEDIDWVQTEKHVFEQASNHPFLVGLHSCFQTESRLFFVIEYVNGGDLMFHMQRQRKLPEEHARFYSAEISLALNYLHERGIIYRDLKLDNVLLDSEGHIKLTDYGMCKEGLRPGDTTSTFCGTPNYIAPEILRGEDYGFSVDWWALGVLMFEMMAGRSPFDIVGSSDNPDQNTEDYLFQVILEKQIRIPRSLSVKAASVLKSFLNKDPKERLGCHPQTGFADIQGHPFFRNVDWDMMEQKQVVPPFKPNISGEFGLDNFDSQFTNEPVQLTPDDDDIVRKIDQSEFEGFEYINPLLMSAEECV
Nature of the assay: PKCι IC50 IMAP assay, full-length PKCι at 150 μM ATP. The following applies: read-out: IC50 in IMAP assay against full length PKCi at 150 μM ATP. It counts as biochemical. The essentials:
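Full-length human PKCι from Sf21 cells, typically 15 pM, with 100 nM 5FAM-PKCε pseudosubstrate peptide and 150 μM ATP (5× apparent KM), 60 min at room temperature, 4% DMSO. IMAP fluorescence polarisation read-out; inhibition normalised to no-compound and no-enzyme controls, IC50 from curve fit.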

What is called IC50 is the concentration that gives 50% inhibition. As for `CC1(C)CNCCC1Nc1nc(-c2ccnc(Nc3nc(F)c(F)cc3F)c2)nc2cncc(C3CC3)c12` (stereo not shown) [Example 2176, {5-Cyclopropyl-2-[2-(3,5,6-trifluoro-pyridin-2-ylamino)-pyridin-4-yl]-pyrido[3,4-d]pyrimidin-4-yl}-(3,3-dimethyl-piperidin-4-yl)-amine], the IC50 was below 100 nM.

With `CC1(C)CN(c2nc(-c3ccnc(Nc4nc(F)ccc4F)c3)nc3cncc(C4CC4)c23)CCN1` [Example 838, {4-[5-Cyclopropyl-4-(3,3-dimethyl-piperazin-1-yl)-pyrido[3,4-d]pyrimidin-2-yl]-pyridin-2-yl}-(3,6-difluoro-pyridin-2-yl)-amine], the IC50 is below 100 nM.

Turning to `CC(C)(C)c1cc2c(-c3nc(N4CCNCC4)c4c(Br)cncc4n3)ccnc2[nH]1` [Example 2120, 5-Bromo-2-(2-tert-butyl-1H-pyrrolo[2,3-b]pyridin-4-yl)-4-piperazin-1-yl-pyrido[3,4-d]pyrimidine], the IC50 was below 100 nM.

Turning to `Cc1ccc(Cl)c(Nc2cc(-c3nc(N4CCNCC4)c4c(C5CC5)cncc4n3)ccn2)c1` [Example 577, (2-Chloro-5-methyl-phenyl)-[4-(5-cyclopropyl-4-piperazin-1-yl-pyrido[3,4-d]pyrimidin-2-yl)-pyridin-2-yl]-Amine], the IC50 was below 100 nM.

As to `Clc1c[nH]c2nccc(-c3nc(N4CCNCC4)c4c(C5CC5)cncc4n3)c12` [Example 2087, 2-(3-Chloro-1H-pyrrolo[2,3-b]pyridin-4-yl)-5-cyclopropyl-4-piperazin-1-yl-pyrido[3,4-d]pyrimidine], the IC50 is below 100 nM.

In the case of `FC(F)(CNc1cc(-c2nc(N3CCNCC3)c3c(C4CC4)cncc3n2)ccn1)c1ccccc1` [Example 2166, [4-(5-Cyclopropyl-4-piperazin-1-yl-pyrido[3,4-d]pyrimidin-2-yl)-pyridin-2-yl]-(2,2-difluoro-2-phenyl-ethyl)-amine], the IC50 was below 100 nM.

In the case of `Cc1c2ccc(Nc3cc(-c4nc(N5CCNCC5)c5c(C6CC6)cncc5n4)ccn3)cc2nn1C` [Example 493, [4-(5-Cyclopropyl-4-piperazin-1-yl-pyrido[3,4-d]pyrimidin-2-yl)-pyridin-2-yl]-(2,3-dimethyl-2H-indazol-6-yl)-amine], the IC50 was below 100 nM.

Consider `COc1cncc2nc(-c3ccncc3)nc(N3CCN(C)[C@@H](Cc4ccccc4)C3)c12` [Example 81, (2S)-2-benzyl-4-[5-methoxy-2-(pyridin-4-yl)pyrido[3,4-d]pyrimidin-4-yl]-1-methylpiperazine; formic acid], for which the IC50 was 100 to 1000 nM.

`COc1cncc2nc(-c3ccnc(Nc4ccc(N5CCNCC5)nc4)c3)nc(N3CCNCC3)c12` [Example 412, [4-(5-Methoxy-4-piperazin-1-yl-pyrido[3,4-d]pyrimidin-2-yl)-pyridin-2-yl]-(6-piperazin-1-ylpyridin-3-yl)-amine]: the IC50 was below 100 nM.

As for `COc1cncc2nc(-c3ccnc(Nc4cc(C#N)ccn4)c3)nc(N3CCC(O)CC3)c12` [Example 402, 2-{4-[4-(4-Hydroxy-piperidin-1-yl)-5-methoxy-pyrido[3,4-d]pyrimidin-2-yl]-pyridin-2-ylamino}-isonicotinonitrile], the IC50 was 100 to 1000 nM.

As to `Fc1cccc(F)c1Nc1cc(-c2nc(N3CCNCC3)c3c(C4CC4)cnc(C4CC4)c3n2)ccn1` [Example 2189, [4-(5,8-Dicyclopropyl-4-piperazin-1-yl-pyrido[3,4-d]pyrimidin-2-yl)-pyridin-2 yl]-(2,6-difluoro-phenyl)-amine], the IC50 is 100 to 1000 nM.

For `CN(c1nc(-c2ccnc3[nH]c(C(F)(F)F)cc23)nc2c(Cl)ncc(C3CC3)c12)C1CCNCC1` [Example 2136, [8-Chloro-5-cyclopropyl-2-(2-trifluoromethyl-1H-pyrrolo[2,3-b]pyridin-4-yl)-pyrido[3,4-d]pyrimidin-4-yl]-methyl-piperidin-4-yl-amine], the IC50 is below 100 nM.

For `FC(F)(F)c1cc2c(-c3nc(NC4CCNCC4)c4c(C5CC5)cncc4n3)ccnc2[nH]1` [Example 2068, [5-Cyclopropyl-2-(2-trifluoromethyl-1H-pyrrolo[2,3-b]pyridin-4-yl)-pyrido[3,4-d]pyrimidin-4-yl]-piperidin-4-yl-amine], the IC50 was below 100 nM.

Regarding `OC1CCN(c2nc(-c3ccnc(Nc4cccc(N5CCOCC5)c4)c3)nc3cncc(C4CC4)c23)CC1` [Example 834, 1-{5-Cyclopropyl-2-[2-(3-morpholin-4-yl-phenylamino)-pyridin-4-yl]-pyrido[3,4-d]pyrimidin-4-yl}-piperidin-4-ol], the IC50 was below 100 nM.

With `CN(C)[C@H](CNc1nc(-c2ccncc2)nc2cnccc12)Cc1ccccc1` [Example 25, N,N-Dimethyl[(2S)-1-phenyl-3-{[2-(pyridin-4-yl)-pyrido[3,4-d]-pyrimidin-4-yl]-amino}propan-2-yl]amine], the IC50 is 100 to 1000 nM.

Turning to `CN1CCN(c2cccc(Nc3cc(-c4nc(N5CCC(O)C(O)C5)c5c(C6CC6)cncc5n4)ccn3)c2)CC1` (single isomer, unassigned) [Example 754, (3S,4S or 3R,4R)-1-(5-Cyclopropyl-2-{2-[3-(4-methyl-piperazin-1-yl)-phenylamino]-pyridin-4-yl}-pyrido[3,4-d]pyrimidin-4-yl)-piperidine-3,4-diol], the IC50 is below 100 nM.

On to `COc1cncc2nc(-c3ccnc(Nc4ccccc4)c3)nc(N3CCC(O)C(O)C3)c12` (single isomer, unassigned) [Example 464, (3S,4R)-1-[5-Methoxy-2-(2-phenylamino-pyridin-4-yl)-pyrido[3,4-d]pyrimidin-4-yl]-piperidine-3,4-diol or (3R,4S)-1-[5-Methoxy-2-(2-phenylamino-pyridin-4-yl)-pyrido[3,4-d]pyrimidin-4-yl]-piperidine-3,4-diol], for which the IC50 lay in the range of 100 to 1000 nM.

Take `Fc1cc(F)c(Nc2cc(-c3nc(N[C@@H]4CCNC4)c4c(C5CC5)cncc4n3)ccn2)nc1F` [Example 2056, {5-Cyclopropyl-2-[2-(3,5,6-tritluoro-pyridin-2-ylamino)-pyridin-4-yl]-pyrido[3,4-d]pyrimidin-4-yl}-(R)-pyrrolidin-3-yl-amine]: the IC50 is below 100 nM.

Take `COc1ccnc(Nc2cc(-c3nc(N4CCNCC4)c4c(OC)cncc4n3)ccn2)c1` [Example 401, [4-(5-Methoxy-4-piperazin-1-yl-pyrido[3,4-d]pyrimidin-2-yl)-pyridin-2-yl]-(4-methoxy-pyridin-2-yl)-amine]: the IC50 is below 100 nM.

For `FC(F)(F)c1cc2c(-c3nc(N4CCSCC4)c4c(C5CC5)cncc4n3)ccnc2[nH]1` [Example 1246, 5-Cyclopropyl-4-thiomorpholin-4-yl-2-(2-trifluoromethyl-1H-pyrrolo[2,3-b]pyridin-4-yl)-pyrido[3,4-d]pyrimidine], the IC50 lay within 10000 to 40000 nM.

Turning to `CN(c1nc(-c2ccnc(Nc3c(F)cccc3F)c2)nc2cncc(C3CC3)c12)C1CCN(C2CCC2)CC1` [Example 2110, (1-Cyclobutyl-piperidin-4-yl)-{5-cyclopropyl-2-[2-(2,6-difluoro-phenylamino)-pyridin-4-yl]-pyrido[3,4-d]pyrimidin-4-yl}-methyl-amine], the IC50 was 100 to 1000 nM.

Turning to `Fc1ccnc(Nc2cc(-c3nc(N4CCNCC4)c4c(C5CC5)cncc4n3)ccn2)c1` [Example 756, [4-(5-Cyclopropyl-4-piperazin-1-yl-pyrido[3,4-d]pyrimidin-2-yl)-pyridin-2-yl]-(4-fluoro-pyridin-2-yl)-amine], the IC50 was below 100 nM.
